# Measured values from US20250340529A1, “Heterocyclic Compounds as Immunomodulators of PD-L1 Interactions” (Ascletis BioScience Co., Ltd, priority 2021, published 2025).
# Columns and labels:
# [1] = biological target: PD-1/PD-L1 (Homo sapiens (Human), UniProt Q9NZQ7); experiment: PD-1/PD-L1 Homogeneous Time-Resolved Fluorescence (HTRF) binding assay; details: 3 nM PD1, 10 nM PD-L1, 25° C., PBS pH 7.4
# Method in brief: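 HTRF with His-tagged human PD-L1 (19-238, 10 nM) and Fc-tagged human PD-1 (25-167, 3 nM) preincubated with inhibitors 40 min in PBS pH 7.4, 0.05% Tween-20, 0.1% BSA, 1% DMSO, 25° C. Eu anti-human IgG and anti-His-APC added, 60 min; 665/620 nm ratio; IC50 from percent control activity fit.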
# [2] = biological target: PD-L1/CHO-K1 cells (Homo sapiens (Human), UniProt Q9NZQ7); experiment: PD-L1 internalization (FACS, PD-L1/CHO-K1 cells); format: cell-based; details: % activation of PD-L1 internalization = 1 − PD-L1 signal; 17 hours incubation
# Sequence of PD-L1/CHO-K1 cells (Q9NZQ7 19-290): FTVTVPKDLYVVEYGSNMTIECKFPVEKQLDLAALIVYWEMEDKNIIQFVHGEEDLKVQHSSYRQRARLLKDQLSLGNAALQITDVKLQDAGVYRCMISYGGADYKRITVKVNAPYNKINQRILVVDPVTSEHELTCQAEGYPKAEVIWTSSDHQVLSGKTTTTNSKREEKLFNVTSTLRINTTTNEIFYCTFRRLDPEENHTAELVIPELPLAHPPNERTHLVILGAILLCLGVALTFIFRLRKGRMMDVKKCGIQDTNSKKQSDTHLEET
# Method: Day 1. Seeding cells: Digest the PD-L1/CHO-K1 cells by trypsin in the flask, then counting the cell number and diluted to 1×10^5 cells/ml. Seeding cells to 6 well plate (Corning, #3516), 2 mL/well. The plates were incubated at 37° C., […] incubator for 24 hours.
# Day 2. Preparing compounds and treated cells: Dilute GLC01-258 from 15 mM to 0.5 mM by using DMSO, and 15 mM compound were serial diluted from 15 mM˜15 nM by DMSO, Then 500 times dilute the compounds by using assay buffer. Prepare 0.2% DMSO in assay buffer used for Vehicle control and low control. Take out the plates, aspirated the medium and thrown away. Adding 2 mL of the diluted compounds, vehicle control and low control to corresponding wells. Then incubated the plates for 17 hours at 37° C., 5% CO2 incubator.
# Day 3. Preparing samples for FACS: After 17 hours incubation, discarded medium and washed by the PBS. Cells in each well were Digested by trypsin. Centrifuge and discard the supernatant, then wash the cells by DPBS (Ca^2+, Mg^2+ free) for twice. 10 fold dilute the antibody (PE-conjugated mouse anti-human CD274) by DPBS, then adding the staining solution to compounds treated samples and vehicle control sample. The low control only add DPBS without antibody. Incubate the plates at room temperature for 20 minutes and protect from light. After 20 minutes, wash the samples by DPBS for twice. Then centrifuge and discard the supernatant. Resuspend cells by 300 uL DPBS and transfer the samples to 5 mL Polystryrene Round-Bottom Tube (Falcon, #352054), then tested by BD FACSCanto. […].
# Set the PD-L1 signal of vehicle control as 100%, PD-L1 signal of Low control as 0%. Then calculate the compound treated samples' PD-L1 signal
# 0% PD-L1 signal: Low control which stained without anti-CD274
# 100% PD-L1 Signal: vehicle control which stained with anti-CD274
# The % activation of PD-L1 Internalization=1−PD-L1 signal of compound.
# [3] = biological target: extracellular domains of PD-L1 (Homo sapiens (Human), UniProt Q9NZQ7); experiment: PD-L1 dimerization (biochemical protein-protein interaction assay); details: PDL1-Eu and PDL1-A2, 25° C., 120 min
# Sequence of extracellular domains of PD-L1 (Q9NZQ7 19-238): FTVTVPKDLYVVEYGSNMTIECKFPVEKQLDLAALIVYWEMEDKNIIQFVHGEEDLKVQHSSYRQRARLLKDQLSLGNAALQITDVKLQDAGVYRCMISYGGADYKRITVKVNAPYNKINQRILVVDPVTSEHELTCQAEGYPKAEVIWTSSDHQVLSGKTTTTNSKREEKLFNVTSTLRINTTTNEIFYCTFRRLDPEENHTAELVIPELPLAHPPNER
# Method: Compounds were tested in biochemical protein-protein interaction assays to determine if they can specifically dimerize the extracellular domains of PD-L1. • (1) Dilute cpd 1:3 in succession in DMSO for each column for 10±0 pts (refer to dilution plate map) • (2) Transfer 0.2 μL cpds solution in each row to 384 assay plate using Echo, each column containing 2 replicates (refer to assay plate map). • (3) Add 20 μL prepared mixture include PDL1-Eu and PDL1-A2 solution to assay plate, centrifuge at 1000 rpm for 1 min. • (4) Incubate at 25° C. for 120 min. • (5) Read fluorescence signal on Envision 2104 plate reader. • (6) Read the Ratio (665 nm/615 nm) signal on Envision. • (7) Analyze the raw data using the equation (V. Data analysis)
# [4] = system: Hep3B-OS8-hPDL1 cells and CD3+ T cells; experiment: Hep3B-OS8-hPDL1 and T cells co-culture assay (IFN-γ by ELISA); format: cell-based; details: Homo sapiens, T-cell, 72 hours, read-out: Tumor and T Cell EC50 (nm)
# Method: a. Hep3B-OS8-hPDL1 and T Cells Co-Culture Assay
# • 1. Hep3B-OS8-hPDL1 cells were cultured in 1640 medium supplemented with 10% fetal bovine serum, 1% penicillin and streptomycin, in which 100 μg/mL G418 and Hygromycin B were also added. • 2. Hep3B-OS8-hPDL1 cells were harvested and treated with 10 μg/mL mitomycin C at 37° C. for 1.5 h, and the cells were then washed thoroughly with PBS for four times. • 3. Cells were re-suspended with RPMI 1640 medium containing 10% FBS and the cell density was adjusted to 5E5 cells/mL. • 4. Cells were seeded into 96-well flat bottom plate (2.5E4 cells/50 μL/well). b. CD3+ T Cells Isolation (30 mL Blood) • 5. The human blood sample from an individual donor is diluted by the same volume of sterile PBS, for instance add 25 mL sterile PBS into 25 mL fresh whole blood and mix sufficiently by gentle shake. • 6. Transfer 15 mL Lymphoprep medium into a new 50 mL centrifuge tube. • 7. Add the diluted blood sample as soft as possible onto the surface of the Ficoll medium to make sure there is a clear dividing line between the two liquids, and the volume ratio between Ficoll and diluted blood (30 mL) is 1:2. • 8. Move the tube gently to centrifuge, at 1000×g, 25 min, 20° C., with the acceleration (5) and Min deceleration (0) settings during the centrifugation. • 9. Four interfaces in all could be observed after the centrifugation, which are layers of plasma, mononuclear cells, the Ficoll medium and RBCs from top to bottom, and move the tube as gently as possible so as keep the four interfaces separated. Absorb and transfer the second layer of mononuclear cells into another new sterile centrifuge tube carefully, and absorb certain volume of plasma instead of the Ficoll medium if inevitable. • 10. Add sterile PBS of the three times the volume of PBMCs in the tube with PBMC. • 11. Wash the cells twice with 5-10 mL PBS before cell counting with cytometer. Centrifuge at 350×g, 10 min, 20° C. With the acceleration (5) and deceleration (5) settings during the centrifugation. • 12. Resuspend the cells with recommended medium and adjust the density of the PBMCs to the final concentration of 5E7 cells/mL. • 13. Isolate CD3+ T cells with EasySep™ Human T Cell Isolation Kit (STEMCELL Technologies #17951), and the cells were seeded into 96-well flat bottom plate (5E4 cells/100 μL/well). c. Compounds solutions preparation • 14. Prepare the Compounds dilutions in RPMI 1640 medium with 10% FBS according to the Layout. 15. Add compounds into each well in a volume of 50 μL. {3 compounds (GLC01-258, GLC01-269, GLC01-465) in 7 concentrations (0.03, 0.1, 0.3, 1, 3, 10 and 30 μM) and 6 compounds (GLC01-411, GLC01-292, GLC01-445, GLC01-475, GLC01-470 and GLC01-468) in the same concentration (1 μM)}. • 16. […]
# Sequence of PD-1/PD-L1 (Q9NZQ7 19-238): as above
IC50 [1],Internalization [2],EC50 [3],EC50 [4],SMILES
7.11 nM,32.70%,91 nM,6.03 nM,O=C(O)[C@H](CO)NCCN1C(=O)COc2cc(-c3cccc(-c4cccc(-c5ccc6c(c5)OCC(=O)N6C[C@@H]5CCCN5)c4Cl)c3Cl)ccc21 [Compound 533]
5.51 nM,23.20%,55.8 nM,5.1 nM,"O=C(O)[C@H](CO)NCCN1C(=O)COc2cc(-c3cccc(-c4cccc(-c5cc6c(cc5F)N(CCN[C@@H](CO)C(=O)O)C(=O)CO6)c4Cl)c3Cl)c(F)cc21 [Compound 554, (2S,2'S)-2,2′-((((2,2′-dichloro-[1,1′-biphenyl]-3,3′-diyl)bis(6-fluoro-3-oxo-2,3-dihydro-4H-benzo[b][1,4]oxazine-7,4-diyl))bis(ethane-2,1-diyl))bis(azanediyl))bis(3-hydroxypropanoic acid)]"
